Test results published in patent US20070203066A1, “Compositions and methods for inhibiting cellular proliferation” (priority 2005, published 2007).
Starred links: 1 amine or outer side, 2 acyl side, 3 side chain; linkers in the order of their positions; H or OH if unused. Positions of bridges follow the written chain, without caps; N, C: chain ends. Non-standard residues stand in square brackets, D forms with d. Residues, ends and D or L forms follow the SMILES beside them. Primed or numbered codes have the meaning given here. Chains are numbered I, II in the order given. No end group written: not given here. Ida = iminodiacetic acid linker, its two carboxyls bind the Lys side-chain amines of two peptides, giving a homodimer; Ida(3) = iminodiacetic acid linker, Lys side-chain amines bound to its two carboxyl groups; Ida(4) = iminodiacetic acid linker (dimerization linker bound to lysine side chain); X1 = CC(C)(C)OC(=O)NCCC(=O)N(CCC(=O)[*:1])CCN(CCC(=O)[*:2])C(=O)CCNC(=O)OC(C)(C)C; ATA = not defined here; Ahx = NCCCCCC(=O)O

Each compound was assayed on HUVECs. Conditions: 48 h.
Format: cell-based
Method in brief: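 HUVECs seeded at 5,000 cells/well in EBM with 2% FCS, adhered ≥12 hours, then stimulated with bFGF 10 ng/ml or VEGF 5 ng/ml plus varying peptide concentrations. After 48 hours at 37 ° C, 5% CO2, proliferation inhibition read by BrdU incorporation.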

`CC[C@H](C)[C@H](NC(=O)[C@H](C)NC(=O)[C@@H](NC(=O)[C@H](CCCNC(=N)N)NC(=O)[C@H](CCC(N)=O)NC(=O)[C@H](CCCNC(=N)N)NC(=O)[C@H](CCCNC(=N)N)NC(=O)[C@H](CCCNC(=N)N)NC(=O)[C@H](CCCNC(=N)N)NC(=O)[C@H](C)NC(C)=O)C(C)C)C(=O)N[C@@H](Cc1ccc(O)cc1)C(=O)N[C@@H](Cc1ccccc1)C(=O)N[C@@H](CCCCNC(=O)CN(CC(=O)NCCCC[C@H](NC(=O)[C@H](Cc1ccccc1)NC(=O)[C@H](Cc1ccc(O)cc1)NC(=O)[C@@H](NC(=O)[C@H](C)NC(=O)[C@@H](NC(=O)[C@H](CCCNC(=N)N)NC(=O)[C@H](CCC(N)=O)NC(=O)[C@H](CCCNC(=N)N)NC(=O)[C@H](CCCNC(=N)N)NC(=O)[C@H](CCCNC(=N)N)NC(=O)[C@H](CCCNC(=N)N)NC(=O)[C@H](C)NC(C)=O)C(C)C)[C@@H](C)CC)C(N)=O)C(=O)CCNC(=O)OC(C)(C)C)C(N)=O` [Peptide 228] and `CC[C@H](C)[C@H](NC(=O)[C@H](C)NC(=O)[C@@H](NC(=O)[C@H](C)NC(=O)[C@H](CCC(N)=O)NC(=O)[C@H](CCCNC(=N)N)NC(=O)[C@H](CCCNC(=N)N)NC(=O)[C@H](CCCNC(=N)N)NC(=O)[C@H](CCCNC(=N)N)NC(=O)[C@H](CCCNC(=N)N)NC(C)=O)C(C)C)C(=O)N[C@@H](Cc1ccc(O)cc1)C(=O)N[C@@H](Cc1ccccc1)C(=O)N[C@@H](CCCCNC(=O)CN(CC(=O)NCCCC[C@H](NC(=O)[C@H](Cc1ccccc1)NC(=O)[C@H](Cc1ccc(O)cc1)NC(=O)[C@@H](NC(=O)[C@H](C)NC(=O)[C@@H](NC(=O)[C@H](C)NC(=O)[C@H](CCC(N)=O)NC(=O)[C@H](CCCNC(=N)N)NC(=O)[C@H](CCCNC(=N)N)NC(=O)[C@H](CCCNC(=N)N)NC(=O)[C@H](CCCNC(=N)N)NC(=O)[C@H](CCCNC(=N)N)NC(C)=O)C(C)C)[C@@H](C)CC)C(N)=O)C(=O)CCNC(=O)OC(C)(C)C)C(N)=O` [Peptide 267] cannot be ordered by IC50: under 10 µM for the first, under 10 µM for the second.

`CC[C@H](C)[C@H](NC(=O)[C@H](C)NC(=O)[C@@H](NC(=O)[C@H](CCCNC(=N)N)NC(=O)[C@H](CCC(N)=O)NC(=O)[C@H](CCCNC(=N)N)NC(=O)[C@H](CCCNC(=N)N)NC(=O)[C@H](CCCNC(=N)N)NC(=O)[C@H](CCCNC(=N)N)NC(=O)[C@H](C)NC(C)=O)C(C)C)C(=O)N[C@@H](Cc1ccc(O)cc1)C(=O)N[C@@H](Cc1ccccc1)C(=O)N[C@@H](CCCCNC(=O)CCN(CCN(CCC(=O)NCCCC[C@H](NC(=O)[C@H](Cc1ccccc1)NC(=O)[C@H](Cc1ccc(O)cc1)NC(=O)[C@@H](NC(=O)[C@H](C)NC(=O)[C@@H](NC(=O)[C@H](CCCNC(=N)N)NC(=O)[C@H](CCC(N)=O)NC(=O)[C@H](CCCNC(=N)N)NC(=O)[C@H](CCCNC(=N)N)NC(=O)[C@H](CCCNC(=N)N)NC(=O)[C@H](CCCNC(=N)N)NC(=O)[C@H](C)NC(C)=O)C(C)C)[C@@H](C)CC)C(N)=O)C(=O)CCNC(=O)OC(C)(C)C)C(=O)CCNC(=O)OC(C)(C)C)C(N)=O` [Peptide 331] (I: Ac-ARRRRQRVAIYFK-NH2 / II: Ac-ARRRRQRVAIYFK-NH2; linker I:13-II:13 via X1; C-terminus assumed) and `CC[C@H](C)[C@H](NC(=O)[C@H](C)NC(=O)[C@@H](NC(=O)[C@H](C)NC(=O)[C@H](CCC(N)=O)NC(=O)[C@H](CCCNC(=N)N)NC(=O)[C@H](CCCNC(=N)N)NC(=O)[C@H](CCCNC(=N)N)NC(=O)[C@H](CCCNC(=N)N)NC(=O)[C@H](C)NC(C)=O)C(C)C)C(=O)N[C@@H](Cc1ccc(O)cc1)C(=O)N[C@@H](Cc1ccccc1)C(=O)N[C@@H](CCCCNC(=O)CN(CC(=O)NCCCC[C@H](NC(=O)[C@H](Cc1ccccc1)NC(=O)[C@H](Cc1ccc(O)cc1)NC(=O)[C@@H](NC(=O)[C@H](C)NC(=O)[C@@H](NC(=O)[C@H](C)NC(=O)[C@H](CCC(N)=O)NC(=O)[C@H](CCCNC(=N)N)NC(=O)[C@H](CCCNC(=N)N)NC(=O)[C@H](CCCNC(=N)N)NC(=O)[C@H](CCCNC(=N)N)NC(=O)[C@H](C)NC(C)=O)C(C)C)[C@@H](C)CC)C(N)=O)C(=O)CCNC(=O)OC(C)(C)C)C(N)=O` [Peptide 315] cannot be ordered by IC50: under 10 µM for the first, under 10 µM for the second.

Work on `CC[C@H](C)[C@H](NC(=O)[C@H](CCCNC(=N)N)NC(=O)[C@@H](NC(=O)[C@H](CCCNC(=N)N)NC(=O)[C@H](CCC(N)=O)NC(=O)[C@H](CCCNC(=N)N)NC(=O)[C@H](CCCNC(=N)N)NC(=O)[C@H](CCCNC(=N)N)NC(=O)[C@H](CCCNC(=N)N)NC(=O)[C@H](CCCNC(=N)N)NC(C)=O)C(C)C)C(=O)N[C@@H](Cc1ccc(O)cc1)C(=O)N[C@@H](Cc1ccccc1)C(=O)N[C@@H](CCCCNC(=O)CN(CC(=O)NCCCC[C@H](NC(=O)[C@H](Cc1ccccc1)NC(=O)[C@H](Cc1ccc(O)cc1)NC(=O)[C@@H](NC(=O)[C@H](CCCNC(=N)N)NC(=O)[C@@H](NC(=O)[C@H](CCCNC(=N)N)NC(=O)[C@H](CCC(N)=O)NC(=O)[C@H](CCCNC(=N)N)NC(=O)[C@H](CCCNC(=N)N)NC(=O)[C@H](CCCNC(=N)N)NC(=O)[C@H](CCCNC(=N)N)NC(=O)[C@H](CCCNC(=N)N)NC(C)=O)C(C)C)[C@@H](C)CC)C(N)=O)C(=O)CCNC(=O)OC(C)(C)C)C(N)=O` [Peptide 279] yielded an IC50 of under 10 µM.

Same assay, conditions: HUVEC proliferation, bFGF at 10 ng/ml or VEGF at 5 ng/ml, 48 hours, BrdU incorporation; read-out: IC50 on HUVECs

First: 185 (Ac-RHRRRQRVRIIF; also: homodimer via C-terminal Lys linker) [compound 185]
Second: 461 (Ac-ARRRK(Ida(3))QAVAIYF; also: homodimer via Ida linker on Lys side chains, linker at 5 via Ida, other end not in the chain) [compound 461]
The IC50 of the first is lower: under 10 µM for the first, 10 to 30 µM for the second. The first is the more potent here.

First: 508 (Ac-CNGRCGGARRRRQRVAIYFK; not fully specified (C-terminus); cysteine pairing not given here; also: homodimer via Ida linker at Lys20 side chain) [compound 508]
Second: KTKRKRKKQRVKIAYEEIF [compound 16]
The IC50 of the first is lower: under 10 µM for the first, 10 to 30 µM for the second.

“184 (XRRRRQRVRIIF; Xaa = Acylated Histidine; Dimeric peptide wherein the C terminus of Phe in position 12 of one peptide chain is covalently bound to one of the amino groups of a Lysine linker and Phe of the remaining peptide chain is covalently bound to the other amino group of the Lysine linker.) [compound 184]” and “225 (Ac-ARRRRQRVAINFK; also: homodimer via Ida linker on side chain of Lys13) [compound 225]” cannot be ordered by IC50: under 10 µM for the first, under 10 µM for the second.

“323 (Ac-RHRRRQHVRIYFK(Ida)-NH2; also: homodimer via Ida linker on Lys13 side chain) [compound 323]” and KTKRKRKKARVKIIFVQNM [compound 115] cannot be ordered by IC50: under 10 µM for the first, under 10 µM for the second.

First: 424 (Ac-ARRRRQWVAIYFK; not fully specified (residue 13, C-terminus); also: homodimer of residues 1-13 via Ida linker on K13 side chain) [compound 424]
Second: 488 (Ac-PRRRNQAVAIKF; not fully specified (residue 11); also: homodimer via Ida linker on Lys11 side chain) [compound 488]
The IC50 of the first is lower: under 10 µM for the first, 10 to 30 µM for the second. The first is the more potent here.

TKRKRKKQRVKIIF [compound 80] and KKSSKRAKTQRRRKSFVKMYENIH [compound 8] cannot be ordered by IC50: over 30 µM for the first, over 30 µM for the second.

Going from RKKQRVKIAYEEIF [compound 69] to “175 (Ac-RRARRQRVRIIF; also: homodimer via C-terminal Lys linker) [compound 175]”, the IC50 falls from over 30 µM to under 10 µM.

Compared with “457 (Ac-PRRRRQAVAIYFK(ATA); reading uncertain; also: homotrimer via Ata linker on Lys13 side chain) [compound 457]”, “465 (Ac-ARRQRQAVAIYFK(Ida(3)); not fully specified (C-terminus); also: homodimer via Ida linker on Lys13 side chain) [compound 465]” is lower in IC50: over 30 µM for the first, under 10 µM for the second. The second is the more potent here.

“27 (Ac-RTRRRRRRQRVRIAYEEIFVRNM[Ahx]K; not fully specified) [compound 27]” and “474 (Ac-PRRRMQAVAIYFK(Ida(3)); not fully specified (C-terminus); also: homodimer via Ida linker on Lys13 side chain) [compound 474]” fall in the same range of IC50: 10 to 30 µM for the first, 10 to 30 µM for the second.

311 (Ac-RRRRRQAVRITITFK) [compound 311] and “485 (Ac-ARRRPQAVAIKF; not fully specified (residue 11); also: homodimer: Lys11 side chain bound to Ida linker (Boc on Ida N)) [compound 485]” cannot be ordered by IC50: under 10 µM for the first, under 10 µM for the second.

“429 (Ac-ARRRRQAVAIK(Ida(4))FI; also: homodimer via Ida linker at K11) [compound 429]” and “186 (Ac-RRHRRQRVRIIF; also: homodimer via C-terminal Lys linker) [compound 186]” cannot be ordered by IC50: under 10 µM for the first, under 10 µM for the second.

“174 (Ac-RARRRQRVRIIF; also: homodimer via C-terminal Lys linker) [compound 174]” and “231 (XRRHRQRVRIIF; Xaa = Acylated Histidine; Dimeric peptide wherein the C terminus of Phe in position 12 of one peptide chain is covalently bound to one of the amino groups of a Lysine linker and Phe of the remaining peptide chain is covalently bound to the other amino group of the Lysine linker.) [compound 231]” cannot be ordered by IC50: under 10 µM for the first, under 10 µM for the second.

Compared with “300 (Ac-RRRRRQAVRIPIPFK-NH2; not fully specified (residue 15); also: homodimer: Lys15 side chain bound to Ida linker) [compound 300]”, “332 (XRRRHQHVRIYFK; not fully specified; Xaa = Acylated Histidine; The side chain of Lysine at position 13 is covalently bound to an Ida linker forming a homodimer of residues 1 through 13.) [compound 332]” is lower in IC50: 10 to 30 µM for the first, under 10 µM for the second. The second is the more potent here.
